These results are taken from ChEMBL document CHEMBL1201862, “PubChem BioAssay data set” (2004).

Among the test systems are A498; A549; HCT-15; HT-29; K562; KM12; M14; MOLT-4; NCI-H226; NCI-H23; OVCAR-3; RPMI-8226; RXF 393; SF-268; SK-MEL-2; SK-MEL-5; SK-OV-3; SNB-75; UACC-62; MCF7.
Assay in all cases: NCI-60 cell line screen, 48 h

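Where inhibition never reached the appropriate level, the endpoint shown equals the highest concentration tested. Otherwise, values were interpolated linearly from a five-concentration, 48-hour dose response in 96-well plates. The concentration for 50% growth inhibition is given as GI50.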 Active and inactive are the calls of the source. Cut-off read from the data, not from the text of the source: active = GI50 up to about 1.1 µM and inactive = higher.

In the case of `COc1c2c(c(O)c3c4c(c(C)cc13)C1OC3(C(OC)OC5CC(C)(O)C(OC6CC(C)(O)C(O)C(C)O6)C(C)O5)OC1C(OC)(O4)C31CO1)C(=O)C(O)CC2OC1CC(C)(O)C(OC(C)=O)C(C)O1` (stereo not given), the GI50 in the experiment with A498 is < 0.01 µM (active); with A549, < 0.01 µM (active); in the experiment with HCT-15 it was 0.0767 µM; in the experiment with HT-29 it was < 0.01 µM (active); in the experiment on K562 it was < 0.01 µM (active); in the experiment on KM12, < 0.01 µM (active). Also, the GI50 with M14, with MOLT-4, in the experiment with NCI-H226, with NCI-H23, with OVCAR-3 and with RPMI-8226 was < 0.01 µM (active) each time. Moreover, the GI50 in the experiment with RXF 393, in the experiment with SF-268, in the experiment on SK-MEL-2, in the experiment on SK-MEL-5, with SK-OV-3 and in the experiment with SNB-75 was < 0.01 µM (active) each time. Also, the GI50 with UACC-62 was < 0.01 µM (active).
As to `CSC(=N)NNC(=O)CCC(=O)Nc1ccccc1C(F)(F)F`, the GI50 with A498 was > 100 µM (inactive); in the experiment on A549, > 100 µM (inactive); in the experiment with HCT-15 it was > 100 µM; in the experiment with HT-29, > 100 µM (inactive); with K562 it was > 100 µM (inactive); in the experiment with KM12, > 100 µM (inactive). Besides, the GI50 in the experiment with M14, with MOLT-4, in the experiment with NCI-H226, in the experiment on NCI-H23, in the experiment on OVCAR-3 and in the experiment on RPMI-8226 was > 100 µM (inactive) each time. For the same molecule, the GI50 is > 100 µM (inactive) with RXF 393; > 100 µM (inactive) in the experiment with SF-268; > 100 µM (inactive) in the experiment with SK-MEL-2; > 100 µM (inactive) with SK-MEL-5; > 100 µM (inactive) with SK-OV-3; > 52.2 µM (inactive) in the experiment with SNB-75. The GI50 with UACC-62 is > 100 µM (inactive).
For the molecule `CCN(CC)CC(=N)N(CC)c1ccccc1`, the GI50 was > 100 µM (inactive) in the experiment on A498; > 100 µM (inactive) in the experiment on A549; > 100 µM in the experiment on HCT-15; > 100 µM (inactive) in the experiment on K562; > 100 µM (inactive) in the experiment on KM12; > 100 µM (inactive) in the experiment on M14. In addition, the GI50 in the experiment on MOLT-4, with NCI-H226, with NCI-H23, with OVCAR-3, in the experiment with RPMI-8226 and in the experiment on RXF 393 was > 100 µM (inactive) each time. The GI50 in the experiment on SF-268 is > 100 µM (inactive); with SK-MEL-2 it was > 100 µM (inactive); in the experiment with SK-MEL-5 it was > 100 µM (inactive); in the experiment with SK-OV-3, > 100 µM (inactive); in the experiment with SNB-75, 33.7 µM (inactive); in the experiment on UACC-62 it was > 100 µM (inactive).
`OCCOCn1nc(-c2ccccc2)nc1-c1cnccn1`: the GI50 with A549 was > 100 µM (inactive); in the experiment with HCT-15, > 100 µM; in the experiment with HT-29 it was > 100 µM (inactive); in the experiment on K562, > 100 µM (inactive); in the experiment on KM12, > 100 µM (inactive); in the experiment on M14, > 100 µM (inactive). The GI50 with MCF7, in the experiment with MOLT-4, with NCI-H23, with OVCAR-3, in the experiment on RPMI-8226 and with RXF 393 was > 100 µM (inactive) throughout. For the same molecule, the GI50 in the experiment with SF-268 was > 100 µM (inactive); in the experiment with SK-MEL-5, > 100 µM (inactive); in the experiment on SK-OV-3 it was > 100 µM (inactive); in the experiment with SNB-75, 35 µM (inactive); in the experiment with UACC-62, > 100 µM (inactive).
In the case of `OC12c3ccccc3C1CCCCCC21OCCCO1` (stereo not given), the GI50 with A498 was > 100 µM (inactive); in the experiment on A549, > 100 µM (inactive); with HCT-15 it was > 100 µM; in the experiment on HT-29 it was > 100 µM (inactive); in the experiment with K562, > 100 µM (inactive); in the experiment on KM12 it was > 100 µM (inactive). Moreover, the GI50 in the experiment on M14, with MOLT-4, in the experiment with NCI-H226, in the experiment on NCI-H23, in the experiment on OVCAR-3 and in the experiment with RPMI-8226 was > 100 µM (inactive) each time. Moreover, the GI50 in the experiment with RXF 393, in the experiment with SF-268, in the experiment on SK-MEL-2, in the experiment on SK-MEL-5, with SK-OV-3 and with SNB-75 was > 100 µM (inactive) each time. In the experiment with UACC-62, the GI50 was > 100 µM (inactive).
Regarding `O=Cc1ccc(CCl)cc1`, the GI50 with A498 was 29 µM (inactive); in the experiment with A549, 39.2 µM (inactive); with HCT-15, 17.9 µM; in the experiment with HT-29, 16.8 µM (inactive); in the experiment on K562, 27.1 µM (inactive); in the experiment on KM12 it was 23.5 µM (inactive). In addition, the GI50 is 14.8 µM (inactive) with M14; 22.9 µM (inactive) with MOLT-4; > 10 µM (inactive) in the experiment with NCI-H23; 19.1 µM (inactive) in the experiment with OVCAR-3; 16.9 µM (inactive) with RXF 393; 24 µM (inactive) in the experiment on SF-268. The GI50 is 17.2 µM (inactive) with SK-MEL-2; 16.6 µM (inactive) in the experiment with SK-MEL-5; 22.1 µM (inactive) in the experiment with SK-OV-3; > 10 µM (inactive) in the experiment on SNB-75; 12.6 µM (inactive) in the experiment with UACC-62.
Turning to `Nc1ccc(C2(c3ccc(N)cc3)C3CC4CC(C3)CC2C4)cc1`, the GI50 is 21 µM (inactive) with A498; 14.6 µM in the experiment with HCT-15; 0.998 µM (active) in the experiment on HT-29; 10.3 µM (inactive) in the experiment on K562; 0.0975 µM (active) in the experiment on KM12; 14.9 µM (inactive) with M14. The GI50 is 19.5 µM (inactive) with MCF7; 4.95 µM (inactive) in the experiment with MOLT-4; 19.9 µM (inactive) in the experiment with NCI-H226; 12.4 µM (inactive) in the experiment on NCI-H23; 10.9 µM (inactive) in the experiment on OVCAR-3; 2.74 µM (inactive) with RXF 393. The GI50 in the experiment with SF-268 was 1.57 µM (inactive); with SK-MEL-2 it was 18.5 µM (inactive); in the experiment on SK-OV-3, 13.4 µM (inactive); with UACC-62, 16.3 µM (inactive).
Consider `O=C(NC1C2CC3CC(C2)CC1C3)c1cc(/C=C/c2ccccc2)nc(S)n1` (stereo not given), for which the GI50 in the experiment with A498, with A549, in the experiment on K562, in the experiment on KM12, in the experiment on M14 and with MOLT-4 was > 100 µM (inactive) in each case. Also, the GI50 with NCI-H23, in the experiment with OVCAR-3, in the experiment on RPMI-8226, in the experiment with RXF 393, in the experiment with SF-268 and in the experiment with SK-MEL-2 was > 100 µM (inactive) in each case. Further, the GI50 in the experiment on SK-MEL-5, in the experiment on SK-OV-3, with SNB-75 and in the experiment with UACC-62 was > 100 µM (inactive) in each case.
Consider `O=C(NC1C(O)C(O)C(CO)OC1n1cc(F)c(=O)[nH]c1=O)OCc1ccccc1` (stereo not given), for which the GI50 with A498 was > 100 µM (inactive); in the experiment on A549, > 100 µM (inactive); with HCT-15 it was > 100 µM; with HT-29 it was > 100 µM (inactive); with KM12, > 100 µM (inactive); in the experiment with M14 it was > 100 µM (inactive). Moreover, the GI50 with NCI-H226, in the experiment on NCI-H23, in the experiment on RPMI-8226, in the experiment with RXF 393, with SF-268 and in the experiment with SK-MEL-2 was > 100 µM (inactive) throughout. In addition, the GI50 with SK-MEL-5, in the experiment with SK-OV-3 and with SNB-75 was > 100 µM (inactive) throughout.
Take `CC(C)=CCc1c(OC(=O)c2c(C)cc(O)cc2O)cc(CO)c(CO)c1O`: the GI50 with A498 is 17.3 µM (inactive); in the experiment with A549, 6.43 µM (inactive); in the experiment with HCT-15 it was 17.7 µM; with HT-29, 21.2 µM (inactive); with K562, 7.62 µM (inactive); in the experiment on KM12, 16.2 µM (inactive). Besides, the GI50 with M14 is 20.8 µM (inactive); in the experiment with MCF7, 24 µM (inactive); in the experiment with MOLT-4, 16.3 µM (inactive); in the experiment with NCI-H226, 34 µM (inactive); with NCI-H23, 16.8 µM (inactive); with SF-268 it was 26.7 µM (inactive). For the same molecule, the GI50 was 21.3 µM (inactive) with SK-MEL-2; 14.8 µM (inactive) in the experiment on SK-MEL-5; 16.2 µM (inactive) in the experiment on SK-OV-3; 12.6 µM (inactive) in the experiment with SNB-75; 15.2 µM (inactive) in the experiment with UACC-62.
As to `COc1ccc(-c2nnc(-c3nsc4ccccc34)o2)cc1`, the GI50 in the experiment with A549 is 78.5 µM (inactive); in the experiment on HCT-15, 31.6 µM; in the experiment on HT-29, 67.6 µM (inactive); in the experiment with KM12 it was 49 µM (inactive); in the experiment with M14, 80.9 µM (inactive); with NCI-H23, > 100 µM (inactive). Besides, the GI50 in the experiment with OVCAR-3 is 28.3 µM (inactive); in the experiment with RPMI-8226, 19.3 µM (inactive); in the experiment with RXF 393 it was 32.5 µM (inactive); with SF-268 it was 65.6 µM (inactive); in the experiment with SK-MEL-2 it was > 100 µM (inactive); with SK-MEL-5, 61.9 µM (inactive). The GI50 was 17.5 µM (inactive) in the experiment with SNB-75 and > 100 µM (inactive) with UACC-62.
With `Oc1cc(-c2ccccc2)nc2c(S)cccc12`, the GI50 was > 100 µM (inactive) with A549; > 100 µM in the experiment with HCT-15; > 100 µM (inactive) with HT-29; 81.3 µM (inactive) with K562; > 100 µM (inactive) in the experiment on KM12; > 100 µM (inactive) in the experiment with M14. Further, the GI50 was > 100 µM (inactive) with MCF7; 47.3 µM (inactive) in the experiment on MOLT-4; 17.2 µM (inactive) in the experiment with NCI-H226; > 100 µM (inactive) in the experiment on NCI-H23; > 100 µM (inactive) with OVCAR-3; > 100 µM (inactive) with RPMI-8226. For the same molecule, the GI50 was 35.9 µM (inactive) with RXF 393; > 100 µM (inactive) in the experiment on SF-268; 37.1 µM (inactive) in the experiment on SK-MEL-5; > 100 µM (inactive) with SK-OV-3; 23.5 µM (inactive) in the experiment on SNB-75; > 100 µM (inactive) with UACC-62.
